Results as given in patent US9649310B2, “Certain kynurenine-3-monooxygenase inhibitors, pharmaceutical compositions, and methods of use thereof” (CHDI Foundation, Inc., priority 2011, dated 2017).

System: not listed separately
Test: Solubility remark made during LCMS characterisation
Type: physicochemical
Conditions: solvent for LCMS analysis

Row | Compound | solubility (remark in words)
1 | O=c1[nH]nc(-c2cc(-c3ccc(Cl)c(Cl)c3)ncn2)[nH]1 | very unsoluble compound- LCMS unobtainable ^1H NMR (250 MHz, DMSO- d6) ppm 9.27-9.32 (1 H, m), 8.39-8.47 (2 H, m), 8.17- 8.25 (1 H, m), 7.76-7.85 (1 H, m)
2 | Cn1[nH]cc(-c2cc(-c3ccc(Cl)c(Cl)c3)ncn2)c1=O | Compound is insufficiently soluble in any acceptable solvent in order to obtain a meaningful LCMS 1H NMR (500 MHz, DMSO-d6) d ppm 8.88 (1 H, s), 8.44 (1 H, br. s.), 8.26 (1 H, br. s.), 8.19 (1 H, d), 8.06 (1 H, br. s.), 7.85 (1 H, d), 3.45 (3 H, s)

Biological target: T1, KMO mouse enzyme (Mus musculus, UniProt Q91WN4)
T1 construct: KMO enzyme prepared at Evotec from mouse liver (4-6 weeks old) via mitochondria isolation; from tissue; host or cells: mouse liver (4-6 weeks old), mitochondria isolation at Evotec
Test: Mouse KMO enzyme assay: L-kynurenine hydroxylation to 3OH-KYN by LC/MS
Type: biochemical
Conditions: compound at 10 μM; KMO from mouse liver mitochondria; read-out: INH.Mouse @ 10 μM
Description: Product is quantified by multiple reaction monitoring (MRM method).
• Compound: Stock concentrations: 10 mM in 100% DMSO • Enzyme: KMO enzyme prepared at Evotec from mouse liver (4-6 weeks old) via mitochondria isolation as described in the literature • Substrate: L-Kynurenine (Sigma: Cat #K3750, stock concentration:
10 mM in 100 mM potassium phosphate buffer, pH 7.4)

T1 sequence (Q91WN4 whole entry): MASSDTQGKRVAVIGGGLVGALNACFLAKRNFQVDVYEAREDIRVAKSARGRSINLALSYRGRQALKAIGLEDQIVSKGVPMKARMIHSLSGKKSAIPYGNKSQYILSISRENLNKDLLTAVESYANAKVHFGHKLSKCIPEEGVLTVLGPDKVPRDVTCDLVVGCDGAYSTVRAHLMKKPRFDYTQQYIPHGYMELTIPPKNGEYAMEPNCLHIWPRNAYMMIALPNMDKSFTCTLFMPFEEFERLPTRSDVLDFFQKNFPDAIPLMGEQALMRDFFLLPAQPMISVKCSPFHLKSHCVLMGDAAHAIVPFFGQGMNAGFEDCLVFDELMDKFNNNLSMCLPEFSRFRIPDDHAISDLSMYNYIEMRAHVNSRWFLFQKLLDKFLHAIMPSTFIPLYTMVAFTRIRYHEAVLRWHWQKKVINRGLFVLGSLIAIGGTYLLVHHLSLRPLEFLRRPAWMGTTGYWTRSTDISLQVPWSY

Row | Compound | inhibition at 10 µM [%]
3 | O=C(O)C1CNCCN1c1cc(-c2ccc(Cl)c(Cl)c2)ncn1 (stereo not shown) [1-(6-(3,4-dichlorophenyl)pyrimidin-4-yl)piperazine-2-carboxylic acid] | 30
4 | O=C(O)C1CCN(c2cc(-c3ccc(Cl)c(Cl)c3)ncn2)C1 (stereo not shown) [1-(6-(3,4-dichlorophenyl)pyrimidin-4-yl)pyrrolidine-3-carboxylic acid] | 14
5 | Clc1cc(-c2cc(-c3ncco3)ncn2)ccc1OC1CC1 [2-(6-(3-chloro-4-cyclopropoxyphenyl)pyrimidin-4-yl)oxazole] | 71
6 | O=c1[nH]c(-c2cc(-c3ccc(OC4CC4)c(Cl)c3)ncn2)no1 [3-[6-(3-chloro-4-cyclopropoxyphenyl)pyrimidin-4-yl]-4,5-dihydro-1,2,4-oxadiazol-5-one] | 93
7 | FC(F)(F)c1c[nH]c(-c2cc(-c3ccc(Cl)c(Cl)c3)ncn2)n1 [4-(3,4-dichlorophenyl)-6-(4-(trifluoromethyl)-1H-imidazol-2-yl)pyrimidine] | 0
8 | Clc1cc(-c2cc(-c3nn[nH]n3)ncn2)ccc1OC1CC1 [4-(3-chloro-4-cyclopropoxyphenyl)-6-(1H-1,2,3,4-tetrazol-5-yl)pyrimidine] | 100
9 | O=C(O)C1CN(c2cc(-c3ccc(Cl)c(Cl)c3)ncn2)CCN1 (stereo not shown) [4-(6-(3,4-dichlorophenyl)pyrimidin-4-yl)piperazine-2-carboxylic acid] | 0
10 | CC(C)Oc1ccc(-c2cc(C3CNC(C(=O)O)C3)ncn2)cc1Cl (stereo not shown) [4-(6-(3-chloro-4-isopropoxyphenyl)pyrimidin-4-yl)pyrrolidine-2-carboxylic acid] | 71
11 | O=C(O)C1CCC(c2cc(-c3ccc(OC4CC4)c(Cl)c3)ncn2)N1 (stereo not shown) [5-(6-(3-chloro-4-cyclopropoxyphenyl)pyrimidin-4-yl)pyrrolidine-2-carboxylic acid] | 84
12 | O=C(O)[C@H]1CCCN1c1cc(-c2ccc(Cl)c(Cl)c2)ncn1 [(R)-1-(6-(3,4-dichlorophenyl)pyrimidin-4-yl)pyrrolidine-2-carboxylic acid] | 7
13 | O=C(O)[C@@H]1CCCN1c1cc(-c2ccc(Cl)c(Cl)c2)ncn1 [(S)-1-(6-(3,4-dichlorophenyl)pyrimidin-4-yl)pyrrolidine-2-carboxylic acid] | 11
